# According to US9375438B2, “Inhibitors of NCCa-ATP channels for therapy” (University of Maryland, Baltimore, priority 2007, dated 2016):
# How the values were obtained:
# [1] = test system: SUR1; assay: SCI model: SUR1 immunolabeling of cord after i.v. ODN; assay type: in vivo, rat
# Experimental: (§1) SCI injury model. This study was performed in accordance with the guidelines of the Institutional Animal Care and Use Committee. Adult female Long-Evans rats (275-350 gm) were anesthetized (Ketamine, 60 mg/kg plus Xylazine, 7.5 mg/kg, i.p.). The dura at C4-5 was exposed via a left hemilaminectomy. A hemi-cervical spinal cord contusion was created using a blunt force impactor (1.3-mm impactor head driven by a 10 gm weight dropped vertically 25 mm) (Soblosky et al., 2001; Gensel et al., 2006). After SCI, animals were given 10 ml of glucose-free normal saline s.q. Rectal temperature was maintained at ˜37° C. using a servo-controlled warming blanket. Blood gases and serum glucose 10-15 min post-SCI were: pO2, 95±6 mm Hg; pCO2, 46±3 mm Hg; pH, 7.33±0.01; glucose 258±17 mg/dl in controls and pO2, 96±7 mm Hg; pCO2, 45±2 mm Hg; pH, 7.37±0.01; glucose 242±14 mg/dl in glibenclamide-treated animals.
# For in vivo gene suppression of SUR1, we used oligodeoxynucleotides that were phosphorothioated at 4 distal bonds to protect against endogenous nucleases (35). Within a few min of SCI, mini-osmotic pumps (Alzet 2002, 0.5 μl/h; Durect Corporation) with jugular vein catheters were implanted that delivered either scrambled sequence ODN (Scr-ODN) (5′-[…]-3′; SEQ ID NO:1) or antisense ODN (AS-ODN) (5′-[…]-3′; SEQ ID NO:2) (Yokoshiki et al., 1999) in PBS at a rate of 1 mg/rat/24 h.
# (§2) Immunohistochemistry. Cryosections were immunolabeled (Chen et al., 2003; Simard et al., 2006) using primary antibodies directed against SUR1 (Santa Cruz, C-16; 1:200; 1 h at RT, 48 h at 4° C.), SUR2 (Santa Cruz, H-80; 1:200; 1 h at RT, 48 h at 4° C.), GFAP (Sigma, C-9205; 1:500), and vimentin (Sigma, monoclonal CY3 conjugated; 1:100). Quantitative immunofluorescence was performed as described (Gerzanich et al., 2003).
# [2] = test system: rats with hemi-cervical spinal cord contusion (SCI); assay: SCI model: extravasated blood in cord (tissue blood); assay type: in vivo, rat; conditions: for PHN: following SCI (summary)
# Experimental: as §1, with “blanket.” for “blanket. Blood gases and serum glucose 10-15 min post-SCI were: pO2, 95±6 mm Hg; pCO2, 46±3 mm Hg; pH, 7.33±0.01; glucose 258±17 mg/dl in controls and pO2, 96±7 mm Hg; pCO2, 45±2 mm Hg; pH, 7.37±0.01; glucose 242±14 mg/dl in glibenclamide-treated animals.”
# (§3) For in vivo gene suppression of SUR1, we used oligodeoxynucleotides that were phosphorothioated at 4 distal bonds to protect against endogenous nucleases (35).
# Tissue blood. Rats were sacrificed at various times after SCI (n=5-11 rats/group), were perfused with heparinized saline to remove intravascular blood, and 5-mm segments of cord encompassing the lesion were homogenized and processed as described (Choudhri et al., 1997).
# [3] = test system: rats with hemi-cervical spinal cord contusion (SCI); assay: SCI model: neurobehavioral assessment (inclined plane, paw placement, rearing); assay type: in vivo, rat
# Experimental: as §1, with “blanket.” for “blanket. Blood gases and serum glucose 10-15 min post-SCI were: pO2, 95±6 mm Hg; pCO2, 46±3 mm Hg; pH, 7.33±0.01; glucose 258±17 mg/dl in controls and pO2, 96±7 mm Hg; pCO2, 45±2 mm Hg; pH, 7.37±0.01; glucose 242±14 mg/dl in glibenclamide-treated animals.”
# as §3
# Neurobehavioral Assessment. All measurements were performed by blinded evaluators. Performance on the inclined plane was evaluated as described (Rivlin and Tator, 1977). To assess paw placement and vertical exploration (rearing) (Nikulina et al., 2004) animals were videotaped while in a translucent cylinder (19×20 cm). Rearing was quantified as the number of seconds spent with both front paws elevated above shoulder-height during a 3-min period of observation.
# [4] = test system: SUR1; assay: SUR1 knock-down in gliotic capsule (gelatin sponge implant), Western blot and astrocyte patch clamp; assay type: in vivo, rat; conditions: vs Scr-ODN
# Experimental: To validate the antisense strategy, it was first implemented in the model that was originally used for the discovery of the NCCa-ATP channel, wherein a gelatin sponge is implanted into the parietal lobe to stimulate formation of a gliotic capsule (Chen and Simard, 2001). Here, animals were also fitted with mini-osmotic pumps that delivered oligodeoxynucleotides (ODN), either antisense (AS) or scrambled (Scr), continuously for 7 d into the injury site.
# SUR1 knock-down in astrocytes was performed in triplicates by implanting rats with gelatin sponges in the parietal lobe to induce formation of a gliotic capsule containing reactive astrocytes that express the SUR1-regulated NCCa-ATP channel (Chen and Simard, 2001; Chen et al., 2003). At the same time, they were implanted with mini-osmotic pumps (Alzet, model 2002; 14-day pump) placed in the dorsal thoracolumbar region that contained ODN (711 μg/ml delivered @ 0.5 μl/h, yielding 1500 picomoles/day), with the delivery catheter placed directly into the site of the gelatin sponge implant in the brain. Animals were infused with Src-ODN or AS-ODN, as above but not phosphorothioated. After 10-14 days, the gelatin sponge plus encapsulating gliotic tissues were harvested and processed either for Western immunoblots or to obtain fresh reactive astrocytes for patch clamp electrophysiology. […]
# [5] = test system: rats with hemi-cervical spinal cord contusion (SCI); assay: SCI model: lesion size; assay type: in vivo, rat; conditions: following SCI; compared to controls (summary)
# Experimental: as §1
# Drug delivery. […] During the course of the project, slightly different formulations of drug were used, with the best results obtained using stock solutions made by placing 50 mg (or 25 mg) of drug into 10 ml DMSO, and infusion solutions made by placing 400 μl (or 800 μl) stock into 4.6 ml (or 4.2 ml) unbuffered saline (0.9% NaCl) and adjusting the pH to ˜8.5 using 0.1 N NaOH.
# Lesion size. At 7 d post-SCI, cords were paraffin sectioned and stained with H&E. Lesion volumes were calculated from lesion areas measured on serial sections every 250 μm.
# as §2
# [6] = target: SUR1-regulated NCCa-ATP channels (Rattus norvegicus, UniProt Q09429); conditions: read-out: EC50, block of NCCa-ATP channel; cited from earlier work
# [7] = target: T1, SUR1-regulated NCCa-ATP channel in human aortic endothelial cells (Homo sapiens, UniProt Q09428); assay: Perforated-patch whole-cell recording of endothelial cells, channel activation by diazoxide; assay type: cell-based
# T1 construct: host or cells: human aortic endothelial cells cultured under hypoxia
# T1 sequence (Q09428 whole entry): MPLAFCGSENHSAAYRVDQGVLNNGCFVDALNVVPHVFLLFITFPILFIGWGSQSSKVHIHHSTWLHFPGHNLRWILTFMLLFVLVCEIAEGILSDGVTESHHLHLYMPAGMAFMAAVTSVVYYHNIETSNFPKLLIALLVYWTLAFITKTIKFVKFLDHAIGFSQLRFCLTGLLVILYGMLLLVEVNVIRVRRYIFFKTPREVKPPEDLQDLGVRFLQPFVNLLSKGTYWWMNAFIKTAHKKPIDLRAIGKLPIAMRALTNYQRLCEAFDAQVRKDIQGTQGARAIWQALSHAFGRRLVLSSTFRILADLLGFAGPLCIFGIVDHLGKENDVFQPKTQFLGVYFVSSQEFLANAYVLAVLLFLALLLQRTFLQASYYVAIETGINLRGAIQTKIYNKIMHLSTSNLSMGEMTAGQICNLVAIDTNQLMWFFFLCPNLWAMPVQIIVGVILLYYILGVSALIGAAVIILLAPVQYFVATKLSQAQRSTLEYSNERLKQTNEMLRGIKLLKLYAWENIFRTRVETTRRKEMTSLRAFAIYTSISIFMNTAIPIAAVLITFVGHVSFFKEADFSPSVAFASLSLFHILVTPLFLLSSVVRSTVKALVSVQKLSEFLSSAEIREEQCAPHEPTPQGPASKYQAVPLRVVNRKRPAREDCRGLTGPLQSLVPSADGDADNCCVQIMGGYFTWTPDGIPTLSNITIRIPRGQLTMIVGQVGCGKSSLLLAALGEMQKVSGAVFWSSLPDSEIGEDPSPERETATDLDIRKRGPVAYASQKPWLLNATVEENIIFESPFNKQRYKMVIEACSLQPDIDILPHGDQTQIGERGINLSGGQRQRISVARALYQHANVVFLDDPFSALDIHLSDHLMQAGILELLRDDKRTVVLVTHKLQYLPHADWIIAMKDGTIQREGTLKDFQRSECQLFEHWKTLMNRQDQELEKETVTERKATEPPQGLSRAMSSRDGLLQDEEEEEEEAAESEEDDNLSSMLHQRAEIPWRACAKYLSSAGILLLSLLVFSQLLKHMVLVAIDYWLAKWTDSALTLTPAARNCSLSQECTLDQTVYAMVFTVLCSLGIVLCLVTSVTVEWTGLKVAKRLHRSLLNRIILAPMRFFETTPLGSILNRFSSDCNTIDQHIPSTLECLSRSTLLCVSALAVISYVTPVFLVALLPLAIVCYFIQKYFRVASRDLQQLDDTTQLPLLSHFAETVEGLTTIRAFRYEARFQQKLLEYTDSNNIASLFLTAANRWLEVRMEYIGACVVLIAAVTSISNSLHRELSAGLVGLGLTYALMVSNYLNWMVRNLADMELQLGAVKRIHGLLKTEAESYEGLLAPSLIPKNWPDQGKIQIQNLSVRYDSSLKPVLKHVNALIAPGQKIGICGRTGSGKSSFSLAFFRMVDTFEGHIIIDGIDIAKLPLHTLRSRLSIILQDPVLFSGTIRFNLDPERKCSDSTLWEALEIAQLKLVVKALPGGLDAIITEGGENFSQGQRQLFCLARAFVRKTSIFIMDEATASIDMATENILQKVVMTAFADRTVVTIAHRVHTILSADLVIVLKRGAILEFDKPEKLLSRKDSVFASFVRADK
# T1 sequence (Q8TD43 whole entry partner): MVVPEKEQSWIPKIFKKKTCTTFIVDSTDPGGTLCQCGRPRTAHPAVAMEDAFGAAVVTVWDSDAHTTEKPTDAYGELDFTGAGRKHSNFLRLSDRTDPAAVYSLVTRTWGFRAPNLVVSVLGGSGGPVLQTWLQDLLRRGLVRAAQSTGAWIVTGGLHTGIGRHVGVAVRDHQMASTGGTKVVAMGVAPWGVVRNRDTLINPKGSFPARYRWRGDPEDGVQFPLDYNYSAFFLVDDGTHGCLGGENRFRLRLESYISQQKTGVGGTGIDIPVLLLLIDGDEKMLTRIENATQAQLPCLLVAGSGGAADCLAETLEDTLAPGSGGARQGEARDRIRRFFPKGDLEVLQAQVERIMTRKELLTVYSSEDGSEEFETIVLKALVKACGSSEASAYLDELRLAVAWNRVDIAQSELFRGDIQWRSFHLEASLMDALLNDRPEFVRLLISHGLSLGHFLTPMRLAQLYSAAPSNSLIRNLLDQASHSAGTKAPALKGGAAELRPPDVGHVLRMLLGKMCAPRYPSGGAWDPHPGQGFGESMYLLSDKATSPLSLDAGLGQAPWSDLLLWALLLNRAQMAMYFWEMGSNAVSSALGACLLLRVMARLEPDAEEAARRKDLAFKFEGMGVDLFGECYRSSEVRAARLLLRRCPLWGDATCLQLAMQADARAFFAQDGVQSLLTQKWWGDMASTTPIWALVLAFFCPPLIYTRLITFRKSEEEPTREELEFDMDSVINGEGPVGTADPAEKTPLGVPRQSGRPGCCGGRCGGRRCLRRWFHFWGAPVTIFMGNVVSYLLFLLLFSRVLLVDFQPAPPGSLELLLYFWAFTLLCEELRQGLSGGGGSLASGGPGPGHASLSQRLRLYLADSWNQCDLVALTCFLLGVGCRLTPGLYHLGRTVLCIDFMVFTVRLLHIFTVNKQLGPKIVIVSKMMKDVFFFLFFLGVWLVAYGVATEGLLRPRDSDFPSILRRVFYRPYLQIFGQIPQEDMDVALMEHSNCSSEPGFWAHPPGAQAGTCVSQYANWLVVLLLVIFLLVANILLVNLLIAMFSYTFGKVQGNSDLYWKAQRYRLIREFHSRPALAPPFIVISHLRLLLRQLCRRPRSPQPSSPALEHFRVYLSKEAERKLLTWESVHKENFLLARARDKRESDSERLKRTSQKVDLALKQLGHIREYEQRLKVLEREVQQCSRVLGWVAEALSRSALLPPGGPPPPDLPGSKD
# Experimental: Patch clamp of endothelial cells was performed using a nystatin-perforated patch technique, to maintain the metabolic integrity of the cells. The identity of the activated channel can be assessed by measurement of the “reversal potential”, the potential at which an ion channel current reverses from inward to outward. With physiologically relevant concentrations of ions intracellularly and extracellularly (high potassium inside, high sodium outside), the reversal potential can unambiguously distinguish between a K^+ channel current such as KATP, which reverses negative to −50 mV and a non-selective cation channel current such as NCCa-ATP, which reverses near 0 mV.
# Cell culture. Endothelial cell cultures from human brain microvessels, human aorta (ScienCell Research Laboratories), and murine brain microvessels (bEnd.3; ATCC), were grown at low density using media and supplements recommended by suppliers.
# [8] = target: native and recombinant β-cell KATP channels (Homo sapiens, UniProt Q09428); conditions: read-out: IC50, block of native and recombinant β-cell KATP channels; cited from earlier work
# Sequence of native and recombinant β-cell KATP channels (Q09428 whole entry): as the sequence (Q09428 whole entry) above
# Sequence of native and recombinant β-cell KATP channels (Q14654 whole entry partner): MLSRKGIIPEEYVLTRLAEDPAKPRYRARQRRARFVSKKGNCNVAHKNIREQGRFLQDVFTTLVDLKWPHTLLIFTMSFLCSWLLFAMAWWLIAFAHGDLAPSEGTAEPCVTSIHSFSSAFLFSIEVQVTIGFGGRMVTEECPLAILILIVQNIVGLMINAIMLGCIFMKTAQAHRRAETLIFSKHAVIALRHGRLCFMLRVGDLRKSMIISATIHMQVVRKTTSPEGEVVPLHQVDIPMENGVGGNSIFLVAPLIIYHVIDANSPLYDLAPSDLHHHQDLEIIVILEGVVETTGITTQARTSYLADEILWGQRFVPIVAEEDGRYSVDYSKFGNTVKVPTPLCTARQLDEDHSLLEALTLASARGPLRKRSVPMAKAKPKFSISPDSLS
# [9] = 1 d post-SCI, ODN i.v., vs Scr-ODN
# [10] = repaglinide 200 ng/h s.q., n=3-8/group
molecule,measurement,setting,value
"5′-GGCCGAGTGGTTCTCGGT-3′ (DNA, backbone and methylation of C not given here; phosphorothioate at 4 distal bonds) [AS-ODN]",SUR1 immunolabeling of cord,"[1]; 6 h post-SCI, ODN i.v. 1 mg/rat/24 h, vs controls",significantly less immunolabeling
same,normal expression of SUR1 in dorsal horn cells,"[1]; post-SCI, ODN i.v.",did not affect
same,necrotic void beneath impact site,"[1]; post-SCI, ODN i.v., vs Scr-ODN",no necrotic void was evident
same,blood in cord homogenates (effect),[2]; [9],reduced
same,PHN,[2],significantly reduced
same,performance in vertical exploration,[3]; [9],significantly better performance
same,performance on the inclined plane,[3]; [9],significantly better performance
same,SUR1 protein in gliotic capsule (Western blot),[4]; ODN infused into injury site,significant reduction
same,astrocyte depolarization on ATP depletion by Na azide,[4]; astrocytes from gliotic capsule,depolarized only slightly or not at all
same,reduction in lesion volume,[5],3 fold
Nc1ncnc2c1ncn2[C@@H]1O[C@H](COP(=O)(O)OP(=O)(O)OP(=O)(O)O)[C@@H](O)[C@H]1O [ATP],EC50,[6],0.79 µM
CC1=NS(=O)(=O)c2cc(Cl)ccc2N1 [diazoxide],current activated by diazoxide,[7]; endothelial cells cultured under hypoxic conditions,activated an ohmic current that reversed near 0 mV
same,current activated by diazoxide,[7]; endothelial cells cultured under normoxic conditions,"either had no effect or, in half of the cells, activated an outwardly rectifying current"
CCOc1cc(CC(=O)N[C@@H](CC(C)C)c2ccccc2N2CCCCC2)ccc1C(=O)O [repaglinide],blood in cord homogenates,"[2]; 1 d post-SCI, repaglinide 200 ng/h s.q., 5-8 rats/group",1.2 ± 0.1 µL
same,PHN,[2],significantly reduced
same,vertical exploration,"[3]; repaglinide 200 ng/h s.q., 5-6 rats/group",27 ± 6 s
same,"inclined plane, head down",[3]; [10],47±3 degrees
same,"inclined plane, head up",[3]; [10],62±2 degrees
same,IC50,[8],0.0009 to 0.007 µM
same,reduction in lesion volume,[5],3 fold
